# How the values were obtained:
# [1] = biological target: T1, full-length human PKCι (Homo sapiens, UniProt P41743); experiment: PKCι IC50 IMAP assay, full-length PKCι at 150 μM ATP; type: biochemical; settings: read-out: IC50 in IMAP assay against full length PKCi at 150 μM ATP
# T1 construct: Recombinant, full-length human PKCι expressed in Sf21 insect cells is also commercially available; purchased; host or cells: Sf21 insect cells
# T1 sequence (P41743 1-596): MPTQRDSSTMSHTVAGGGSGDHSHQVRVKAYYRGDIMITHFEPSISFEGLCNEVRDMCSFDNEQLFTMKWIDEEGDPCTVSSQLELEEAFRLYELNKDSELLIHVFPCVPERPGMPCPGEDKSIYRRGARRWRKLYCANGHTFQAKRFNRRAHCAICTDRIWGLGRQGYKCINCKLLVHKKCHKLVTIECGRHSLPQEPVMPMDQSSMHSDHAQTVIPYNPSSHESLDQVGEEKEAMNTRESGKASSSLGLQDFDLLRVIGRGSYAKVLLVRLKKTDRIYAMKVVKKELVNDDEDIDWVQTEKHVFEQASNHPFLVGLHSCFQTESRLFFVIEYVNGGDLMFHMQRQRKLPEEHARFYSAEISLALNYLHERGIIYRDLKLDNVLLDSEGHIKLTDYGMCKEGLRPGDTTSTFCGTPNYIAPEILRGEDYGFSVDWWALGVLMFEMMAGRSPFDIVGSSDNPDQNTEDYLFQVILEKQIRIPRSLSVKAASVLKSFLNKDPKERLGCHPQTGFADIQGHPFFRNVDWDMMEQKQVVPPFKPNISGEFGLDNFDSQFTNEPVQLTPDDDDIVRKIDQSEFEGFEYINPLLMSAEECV
# How it was run: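 Full-length human PKCι from Sf21 cells, typically 15 pM, with 100 nM 5FAM-PKCε pseudosubstrate peptide and 150 μM ATP (5× apparent KM), 60 min at room temperature, 4% DMSO. IMAP fluorescence polarisation read-out; inhibition normalised to no-compound and no-enzyme controls, IC50 from curve fit.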
# [2] = test system: NSCLC cells; settings: pharmacological inhibition of PKCι; literature (Regala et al.); cited from earlier work
# [3] = test system: follicular lymphoma; settings: by targeting a PKCζ-MAPK-mTOR pathway; literature (Leseux et al.); cited from earlier work
melting point,IC50 [1],Compound,growth of NSCLC cells in soft agar [2],follicular lymphoma proliferation [3]
241 to 243 °C,100 to 1000 nM,"COc1cncc2nc(-c3ccnc(Nc4ccccc4)c3)nc(N3CC[C@H](O)[C@H](O)C3)c12 (racemic) [Example 436, (±)-cis-1-[5-Methoxy-2-(2-phenylamino-pyridin-4-yl)-pyrido[3,4-d]pyrimidin-4-yl]-piperidine-3,4-diol]",–,–
206 to 208 °C,< 100 nM,"COc1cncc2nc(-c3ccnc(Nc4ccc(Cl)nc4)c3)nc(N3CCNCC3)c12 [Example 405, (6-Chloro-pyridin-3-yl)-[4-(5-methoxy-4-piperazin-1-yl-pyrido[3,4-d]pyrimidin-2-yl)-pyridin-2-yl]-amine]",–,–
200 to 203 °C,100 to 1000 nM,"COc1cncc2nc(-c3ccnc(Nc4ncccn4)c3)nc(N3CCNCC3)c12 [Example 423, [4-(5-Methoxy-4-piperazin-1-yl-pyrido[3,4-d]pyrimidin-2-yl)-pyridin-2-yl]-pyrimidin-2-yl-amine]",–,–
189 to 191 °C,< 100 nM,"COc1cccc(Nc2cc(-c3nc(N4CCNCC4)c4c(OC)cncc4n3)ccn2)n1 [Example 448, [4-(5-Methoxy-4-piperazin-1-yl-pyrido[3,4-d]pyrimidin-2-yl)-pyridin-2-yl]-(6-methoxy-pyridin-2-yl)-amine]",–,–
221 to 223 °C,10000 to 40000 nM,"COc1cncc2nc(-c3ccnc(Nc4ccccc4)c3)nc(N3CCCCC3)c12 [Example 459, [4-(5-Methoxy-4-piperidin-1-yl-pyrido[3,4-d]pyrimidin-2-yl)-pyridin-2-yl]-phenyl-amine]",–,–
242 to 244 °C,1000 to 10000 nM,"COc1cncc2nc(-c3ccnc(Nc4ccccc4)c3)nc(N3CCC(C#N)CC3)c12 [Example 461, 1-[5-Methoxy-2-(2-phenylamino-pyridin-4-yl)-pyrido[3,4-d]pyrimidin-4-yl]-piperidine-4-carbonitrile]",–,–
202 to 205 °C,10000 to 40000 nM,"COc1cncc2nc(-c3ccnc(Nc4ccccc4)c3)nc(N3CCC(F)CC3)c12 [Example 462, {4-[4-(4-Fluoro-piperidin-1-yl)-5-methoxy-pyrido[3,4-d]pyrimidin-2-yl]-pyridin-2-yl}-phenyl-amine]",–,–
208 to 209 °C,1000 to 10000 nM,"COc1cncc2nc(-c3ccnc(Nc4ccccc4)c3)nc(N3CC[C@@H](CO)C3)c12 [Example 465, {(R)-1-[5-Methoxy-2-(2-phenylamino-pyridin-4-yl)-pyrido[3,4-d]pyrimidin-4-yl]-pyrrolidin-3-yl}-methanol]",–,–
210 to 211 °C,1000 to 10000 nM,"COc1cncc2nc(-c3ccnc(Nc4ccccc4)c3)nc(N3CC[C@H](CO)C3)c12 [Example 466, {(S)-1-[5-Methoxy-2-(2-phenylamino-pyridin-4-yl)-pyrido[3,4-d]pyrimidin-4-yl]-pyrrolidin-3-yl}-methanol]",–,–
200 to 203 °C,< 100 nM,"N#Cc1ccc(CC(=O)Nc2cc(-c3nc(N4CCNCC4)c4c(C5CC5)cncc4n3)ccn2)cc1 [Example 473, 2-(4-Cyano-phenyl)-N-[4-(5-cyclopropyl-4-piperazin-1-yl-pyrido[3,4-d]pyrimidin-2-yl)-pyridin-2-yl]-acetamide]",–,–
214 to 220 °C,< 100 nM,"Cc1cc(N2CCOCC2)ccc1Nc1cc(-c2nc(N3CCNCC3)c3c(C4CC4)cncc3n2)ccn1 [Example 474, [4-(5-Cyclopropyl-4-piperazin-1-yl-pyrido[3,4-d]pyrimidin-2-yl)-pyridin-2-yl]-(2-methyl-4-morpholin-4-yl-phenyl)-amine]",–,–
217 to 219 °C,< 100 nM,"c1cc(-c2nc(N3CCNCC3)c3c(C4CC4)cncc3n2)cc(Nc2ccc(N3CCOCC3)nc2)n1 [Example 475, [4-(5-Cyclopropyl-4-piperazin-1-yl-pyrido[3,4-d]pyrimidin-2-yl)-pyridin-2-yl]-(6-morpholin-4-yl-pyridin-3-yl)-amine]",–,–
226 to 228 °C,< 100 nM,"c1cncc(Nc2cc(-c3nc(N4CCNCC4)c4c(C5CC5)cncc4n3)ccn2)c1 [Example 476, [4-(5-Cyclopropyl-4-piperazin-1-yl-pyrido[3,4-d]pyrimidin-2-yl)-pyridin-2-yl]-pyridin-3-yl-amine]",–,–
221 to 226 °C,–,"c1ccc(Nc2cc(-c3nc(N4CCNCC4)c4c(C5CC5)cncc4n3)ccn2)cc1 [Example 481, [4-(5-Cyclopropyl-4-piperazin-1-yl-pyrido[3,4-d]pyrimidin-2-yl)-pyridin-2-yl]-phenyl-amine]",–,–
–,–,O=C(O)CC([S-])C(=O)O.[Au+] (stereo not drawn) [aurothiomalate],blocks the growth,–
–,–,"Rituximab: ""the anti-CD20 therapeutic antibody rituximab""",–,inhibits follicular lymphoma proliferation
–,< 100 nM,"{4-[5-Cyclopropyl- 4-((R)-3- fluoromethyl- piperazin-1- yl)-pyrido[3,4-d]- pyrimidin-2-yl]- pyridin-2-yl}-(6- fluoro-pyridin-2- yl)-amine [Example 512]",–,–
